Patent US3975538A, “Miticidally active compositions” (priority 1974, dated 1976)

Key:
[1] = tested on: citrus red mite which show resistance to citrazon; assay: Experiment 5 test on citrazon-resistant citrus red mite; type: in vivo; settings: Panonychus citri, 48 h, read-out: Death rate
Description: 100 female adults of citrus red mite which show resistance to citrazon were released on the leaves of the potted trifoliate orange (The pot: 9 cm in diameter). 20 cc each of the emulsions 100 prepared in Example 4, of compound No.4 and citrazon (mentioned before) for comparison of different concentrations was sprayed on one of the pots. After spraying the pots were kept in a kasten for 2 days and from the number of the surviving mites the death rates were calculated.

[2] = tested on: citrus red mite, Panonychus citri; assay: Experiment 1 miticidal test (citrus red mite on potted lemon tree); type: in vivo; settings: 240 h, larvae and adults, 200 ppm in water, 20 cc spray, 10 days at 28°C, read-out: Evaluation (mortality of mites and eggs)
Description: In this experiment, approximately 50 larvae and adults of the citrus red mite, Panonychus citri were first released on the leaves of a young lemon tree, with about 10 leaves, growing in a pot (9 cm in diameter). […] Two days later, each potted plant was sprayed with 20 cc of one of these preparations with a spray gun (under 1 kg/cm^2 pressure, 80 cm distance from the plant) in a spray chamber. After the spraying, the pots were placed in a air-conditioned greenhouse (28°C) for 10 days, the number of mites and eggs surviving on the leaves counted.

[3] = tested on: eggs of citrus red mite; assay: Experiment 4 ovicidal test (citrus red mite eggs on trifoliate orange); type: in vivo, Panonychus citri; settings: 500 ppm in water, 20 cc spray, 7 days at 28°C, three repeats
Description: (§1) Criteria for evaluating effectiveness:
In this experiment, 20 female adults of the citrus red mite were released on the leaves of the potted trifoliate orange (15 cm in height). The pots were then placed in a air-conditioned greenhouse (28°C) for 2 days. Then the adults were removed from the plant and the eggs laid on the leaves were subjected to the ovicidal test. The number of the eggs on each plant was counted prior to the chemical application. […] 20 cc of each compound was sprayed on one of the plants. After spraying, the pots were returned to the air-conditioned greenhouse and kept there for 7 days. Then, by microscopic inspection, the numbers of unhatched eggs, the larvae which died after hatching, and the surviving larvae, respectively, on each plant were counted.

[4] = tested on: two-spotted spider mite, Tetranychus urticae; assay: Experiment 2 miticidal test (two-spotted spider mite on pea seedling); type: in vivo; settings: 48 h, female adults, 500 ppm in water, 20 cc spray, 2 days at 28°C, read-out: Evaluation (mortality of mites)
Description: as §1
After spraying the pots were placed in a air-conditioned greenhouse (28°C) for 2 days.

[5] = tested on: Kanzawa spider mite, Tetranychus kanzawai; assay: Experiment 3 miticidal test (Kanzawa spider mite on pea seedling); type: in vivo; settings: female adults, 500 ppm in water, 20 cc spray, three repeats, read-out: Evaluation (mortality of mites)
Description: as §1
In this experiment, one day after approximately 50 female adults of the Kanzawa spider mite, Tetranychus kanzawai, were placed on the leaves of a seedling of the pea plant (5 days after germination), growing in pots (9 cm in diameter), the plant was sprayed with emulsion of the compound of Formula (I), diluted to 500 ppm in water. […] The test was repeated three times.

Structure (SMILES) | mortality at 200 ppm [2] [%] | Evaluation (ovicidal effectiveness) [3] | mortality at 500 ppm [4] [%] | mortality at 500 ppm [5] [%] | other results
CCOC(=NOC(=O)c1ccccc1)c1c(OC)ccc(Cl)c1OC [Citrazon, ethyl O-benzoyl-3-chloro-2,6-dimethoxybenzohydroxamate] | – | – | – | – | mortality at 12.5 ppm [1]: 19.5%; mortality at 25 ppm [1]: 25.8%; mortality at 50 ppm [1]: 40.6%; mortality at 100 ppm [1]: 40.5%; mortality at 200 ppm [1]: 43.5%; mortality at 400 ppm [1]: 68%
CCOC(=NOC(=O)c1ccccc1)c1c(OC)ccc2ccccc12 [Control No. 1, ethyl O-benzoyl-2-methoxy-1-naphthohydroxamate] | < 49 | - (49 % or less) | < 49 | < 49 | –
CCOC(=NOC(=O)c1ccc(C)cc1)c1c(OC)ccc2ccccc12 [Control No. 2, ethyl 0-(4-methylbenzoyl)-2-methoxy-1-naphthohydroxamate] | < 49 | - (49 % or less) | < 49 | < 49 | –
CCOC(=O)ON=C(OCC)c1c(OC)ccc2ccccc12 [compound 2, ethyl O-ethoxycarbonyl-2-methoxy-1-naphthohydroxamate] | 90 to 99 | ++ (90 - 99 %) | – | – | –
CCOC(=NOC(=O)SC(C)C)c1c(OC)ccc2ccccc12 [compound 13, ethyl O-isopropylthiocarbonyl-2-methoxy-1-naphthohydroxamate] | 100 | – | – | – | –
